Converted amounts (≈) assume the structure as drawn. The source made the active and inactive calls. The rule behind the calls is not given here.

Assay [1] deals with Epidermal growth factor receptor (Mus musculus, UniProt Q01279). The experiment in a line: Inhibition of mouse EGFR by liquid scintillation counting.
Assay [2] can be described thus: Inhibition of protein kinase A.
Assay [3] is described as follows: Inhibition of protein kinase C.
Assay [4] can be described thus: Inhibition of phosphatidylinositol kinase.
Assay [5] deals with Epidermal growth factor receptor (Homo sapiens, UniProt P00533).
In the next assay the test system is A-431. The assay is described as follows: Cytotoxicity against human A431 cells. The class given is functional, cell-based.
Assay [6] addresses Epidermal growth factor receptor (Mus musculus) (UniProt Q01279). The assay is described as follows: Inhibition of mouse EGFR using [32P]gammaATP as substrate by competitive Lineweaver-Burke plot.
Assay [7] has the same target. The assay is described as follows: Inhibition of mouse EGFR using tridecapeptide as substrate by uncompetitive Lineweaver-Burke plot.
Assay [8] is described as follows: Cytotoxicity against mouse NIH/3T3 cells. Type of assay: cell-based. The conditions noted are these: NIH3T3.
For another assay, the system named is NIH3T3. The experiment in a line: Cytotoxicity against RSV transformed mouse NIH/3T3 cells. Type of assay: functional, cell-based.
The next assay relates to P388. The assay is described as follows: Cytotoxicity against mouse P388 cells. The class given is functional, cell-based.
Another assay concerns L1210. The experiment in a line: Cytotoxicity against mouse L1210 cells. The class given is functional, cell-based.

Epidermal growth factor receptor (Mus musculus, UniProt Q01279), sequence (Q01279 whole entry): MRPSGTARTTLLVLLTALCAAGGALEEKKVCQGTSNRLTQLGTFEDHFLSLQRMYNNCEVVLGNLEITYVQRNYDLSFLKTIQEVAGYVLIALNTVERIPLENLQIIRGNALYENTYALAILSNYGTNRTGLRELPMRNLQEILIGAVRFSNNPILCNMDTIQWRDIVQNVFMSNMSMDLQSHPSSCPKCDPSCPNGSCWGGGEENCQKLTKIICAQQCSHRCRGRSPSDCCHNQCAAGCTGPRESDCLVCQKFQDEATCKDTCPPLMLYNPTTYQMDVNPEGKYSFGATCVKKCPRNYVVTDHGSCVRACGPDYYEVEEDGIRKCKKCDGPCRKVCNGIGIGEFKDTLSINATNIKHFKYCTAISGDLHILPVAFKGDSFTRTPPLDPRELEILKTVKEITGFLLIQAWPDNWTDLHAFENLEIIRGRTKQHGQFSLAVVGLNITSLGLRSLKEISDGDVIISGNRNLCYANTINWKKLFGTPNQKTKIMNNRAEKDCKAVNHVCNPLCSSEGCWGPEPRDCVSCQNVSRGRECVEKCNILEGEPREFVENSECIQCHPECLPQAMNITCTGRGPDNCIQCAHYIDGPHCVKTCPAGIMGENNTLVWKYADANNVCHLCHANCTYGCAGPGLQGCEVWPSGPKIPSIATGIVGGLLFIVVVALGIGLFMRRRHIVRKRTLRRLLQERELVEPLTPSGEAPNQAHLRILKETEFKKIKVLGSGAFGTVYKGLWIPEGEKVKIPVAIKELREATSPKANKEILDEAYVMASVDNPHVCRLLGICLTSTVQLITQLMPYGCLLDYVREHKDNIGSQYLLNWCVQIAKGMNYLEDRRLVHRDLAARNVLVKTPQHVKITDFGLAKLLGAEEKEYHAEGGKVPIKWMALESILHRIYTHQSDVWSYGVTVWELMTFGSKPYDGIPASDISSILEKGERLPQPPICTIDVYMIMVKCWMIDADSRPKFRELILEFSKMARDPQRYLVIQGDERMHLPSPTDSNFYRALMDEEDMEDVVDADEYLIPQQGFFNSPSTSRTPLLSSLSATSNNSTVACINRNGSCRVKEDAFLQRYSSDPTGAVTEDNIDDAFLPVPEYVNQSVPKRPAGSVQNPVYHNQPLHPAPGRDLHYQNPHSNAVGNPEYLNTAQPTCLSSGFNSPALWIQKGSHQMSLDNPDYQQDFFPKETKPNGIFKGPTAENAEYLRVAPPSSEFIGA
Epidermal growth factor receptor (Mus musculus), sequence (Q01279 whole entry): as above
Epidermal growth factor receptor (Homo sapiens, UniProt P00533), sequence (P00533 whole entry): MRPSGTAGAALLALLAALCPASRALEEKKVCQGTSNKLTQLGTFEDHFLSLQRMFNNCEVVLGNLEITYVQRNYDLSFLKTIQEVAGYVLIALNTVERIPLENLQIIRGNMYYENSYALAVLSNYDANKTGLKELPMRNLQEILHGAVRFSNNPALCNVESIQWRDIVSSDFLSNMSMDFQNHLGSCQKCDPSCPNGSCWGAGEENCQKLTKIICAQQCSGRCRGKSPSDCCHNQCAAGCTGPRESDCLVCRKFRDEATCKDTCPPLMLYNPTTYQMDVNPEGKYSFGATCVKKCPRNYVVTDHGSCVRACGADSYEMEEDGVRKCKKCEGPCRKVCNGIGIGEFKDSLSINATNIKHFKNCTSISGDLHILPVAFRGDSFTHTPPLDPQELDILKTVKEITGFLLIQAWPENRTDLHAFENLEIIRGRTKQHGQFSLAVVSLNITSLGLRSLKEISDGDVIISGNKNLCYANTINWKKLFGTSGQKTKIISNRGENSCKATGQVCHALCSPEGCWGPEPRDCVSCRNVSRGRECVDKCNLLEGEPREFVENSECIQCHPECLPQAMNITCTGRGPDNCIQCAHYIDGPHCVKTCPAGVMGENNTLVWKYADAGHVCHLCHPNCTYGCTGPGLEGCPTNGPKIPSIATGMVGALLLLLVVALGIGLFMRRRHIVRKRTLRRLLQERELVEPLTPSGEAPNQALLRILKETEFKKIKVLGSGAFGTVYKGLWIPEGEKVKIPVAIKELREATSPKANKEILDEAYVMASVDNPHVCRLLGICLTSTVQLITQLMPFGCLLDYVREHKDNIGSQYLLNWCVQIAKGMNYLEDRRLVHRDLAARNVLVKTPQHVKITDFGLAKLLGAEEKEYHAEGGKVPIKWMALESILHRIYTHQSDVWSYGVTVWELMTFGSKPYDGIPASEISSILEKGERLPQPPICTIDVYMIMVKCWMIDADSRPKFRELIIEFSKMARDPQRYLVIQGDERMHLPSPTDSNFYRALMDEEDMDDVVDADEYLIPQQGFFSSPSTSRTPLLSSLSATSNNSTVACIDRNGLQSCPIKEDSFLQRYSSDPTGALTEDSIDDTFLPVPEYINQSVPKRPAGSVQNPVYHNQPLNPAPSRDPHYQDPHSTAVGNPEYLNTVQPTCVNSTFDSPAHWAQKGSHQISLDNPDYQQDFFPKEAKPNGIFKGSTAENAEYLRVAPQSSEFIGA

`Nc1cc(C(=O)O)ccc1O` gave an IC50 in [1] of more than 653000 nM.

As for `O=Cc1cc(O)ccc1O`, in assay [1], it took 239000 nM to reach half-maximal inhibition (IC50).

With `O=C(O)c1cc(N(Cc2cc(O)ccc2O)Cc2cc(O)ccc2O)ccc1O`, in assay [1], the IC50 is 27.7 nM.

For `O=C(O)c1ccc(O)c(N(Cc2ccccc2O)Cc2cc(O)ccc2O)c1`, it took 446 nM to reach half-maximal inhibition in assay [1] (IC50).

`O=C(O)c1cc(/N=C\c2cc(O)ccc2O)ccc1O`: the IC50 in assay [1] is 2780 nM.

Take `O=CN/C=C/c1cc(O)ccc1O` [ERBSTATIN]: the IC50 was 1120 nM in [1]; 100 µg/mL (≈ 558 µM) in [2]; more than 179 µg/mL in [3]; 25 µg/mL (≈ 140 µM) in assay [4]; 1120 nM in assay [5].

On to `O=C(O)c1cc(N(Cc2ccccc2O)Cc2cc(O)ccc2O)ccc1O` [LAVENDUSTIN A], for which the IC50 in the assay on A-431 was 26 µg/mL (≈ 68.2 µM); in assay [1] it was 11.5 nM; in [2], more than 100 µg/mL; in assay [3], more than 100 µg/mL; in [4] it was 6.4 µg/mL (≈ 16.8 µM); in assay [8] it was 22 µg/mL (≈ 57.7 µM). For the same compound, the figures for the IC50 with NIH3T3, in the assay on P388 and in the assay on L1210 were 19.5 µg/mL (≈ 51.1 µM), 21.5 µg/mL (≈ 56.4 µM) and 28 µg/mL (≈ 73.4 µM), respectively. In addition, the outcome in assay [6] and in assay [7] was Active.

As for `O=C(O)c1cc(N(Cc2ccccc2O)Cc2ccccc2O)ccc1O` [LAVENDUSTIN B], half-maximal inhibition in assay [1] (IC50) was put at 1340 nM.

With `Nc1ccc(O)c(C(=O)O)c1` [MESALAMINE], the IC50 in [1] is 17600 nM.
